Values after ≈ are worked out from the molar mass of the structure shown.

The results in this text go back to ChEMBL document CHEMBL1146587, “Purification, structure determination, and antimicrobial activity of neutramycins B-G” (2003).

The test system of the assay is Staphylococcus aureus. Briefly: Antibacterial activity against Staphylococcus aureus ATCC 6538P after 18 hrs by broth microdilution method. Format: functional.

On to `CO[C@@H]1[C@H](O)[C@@H](C)O[C@@H](OC[C@H]2[C@@H]3O[C@@H]3/C=C/C(=O)[C@H](C)CC[C@H](O[C@@H]3O[C@H](C)C[C@H](O)[C@H]3O)[C@@H](C)/C=C/C(=O)O[C@@H]2C)[C@@H]1OC` [NEUTRAMYCIN E], for which 32 µg/mL (≈ 48.7 µM) was the least that counted as inhibitory (MIC).
